Source: ChEMBL document CHEMBL6071206, “Development of BODIPY FL SNS 032 as a Versatile Probe for Constitutive Androstane Receptor and Multiple Kinases” (ACS Med Chem Lett, 2024)
Values belong to the molecule of their own block, whether it stands above or below them.

What was measured:
[1] = molecular target: T1, Nuclear receptor subfamily 1 group I member 3 (Homo sapiens, UniProt Q14994); assay: Inhibition of GST-tagged human CAR LBD incubated for 90 mins by TR-FRET assay
T1 sequence (Q14994 whole entry): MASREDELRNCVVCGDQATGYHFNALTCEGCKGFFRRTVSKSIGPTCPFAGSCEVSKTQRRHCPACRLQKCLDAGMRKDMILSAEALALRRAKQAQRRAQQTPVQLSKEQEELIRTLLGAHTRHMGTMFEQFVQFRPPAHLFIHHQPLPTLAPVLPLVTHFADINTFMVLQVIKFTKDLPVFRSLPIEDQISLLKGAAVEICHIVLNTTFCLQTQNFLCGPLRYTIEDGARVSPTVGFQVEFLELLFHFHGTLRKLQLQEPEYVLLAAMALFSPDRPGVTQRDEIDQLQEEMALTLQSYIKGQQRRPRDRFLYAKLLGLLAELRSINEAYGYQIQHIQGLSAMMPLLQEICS

[2] = molecular target: T1, Nuclear receptor subfamily 1 group I member 3; assay: Inhibition of GST-tagged human CAR LBD at 90 uM incubated for 90 mins in presence of Cy5-PGC1-alpha by HTRF co-activator assay relative to control; settings: 1.5 h, read-out: Imax
CDK9/cyclin T1 = CDK9/cyclin T1 (Homo sapiens, UniProt P50750); assay: Inhibition of His-tagged human CDK9/CycT1 incubated for 90 mins by TR-FRET assay; type: protein-complex assay
[3] = molecular target: T1, Nuclear receptor subfamily 1 group I member 3; assay: Inhibition of GST-tagged human CAR LBD at 100 uM incubated for 90 mins by TR-FRET assay relative to control; settings: 1.5 h, read-out: Imax
[4] = molecular target: Glycogen synthase kinase-3 alpha (Homo sapiens, UniProt P49840); assay: Inhibition of GST-tagged human GSK3A incubated for 90 mins by TR-FRET assay
[5] = molecular target: T2, Mitogen-activated protein kinase 15 (Homo sapiens, UniProt Q8TD08); assay: Inhibition of Flag/His-tagged human MAPK15 incubated for 90 mins by TR-FRET assay
T2 sequence (Q8TD08 whole entry): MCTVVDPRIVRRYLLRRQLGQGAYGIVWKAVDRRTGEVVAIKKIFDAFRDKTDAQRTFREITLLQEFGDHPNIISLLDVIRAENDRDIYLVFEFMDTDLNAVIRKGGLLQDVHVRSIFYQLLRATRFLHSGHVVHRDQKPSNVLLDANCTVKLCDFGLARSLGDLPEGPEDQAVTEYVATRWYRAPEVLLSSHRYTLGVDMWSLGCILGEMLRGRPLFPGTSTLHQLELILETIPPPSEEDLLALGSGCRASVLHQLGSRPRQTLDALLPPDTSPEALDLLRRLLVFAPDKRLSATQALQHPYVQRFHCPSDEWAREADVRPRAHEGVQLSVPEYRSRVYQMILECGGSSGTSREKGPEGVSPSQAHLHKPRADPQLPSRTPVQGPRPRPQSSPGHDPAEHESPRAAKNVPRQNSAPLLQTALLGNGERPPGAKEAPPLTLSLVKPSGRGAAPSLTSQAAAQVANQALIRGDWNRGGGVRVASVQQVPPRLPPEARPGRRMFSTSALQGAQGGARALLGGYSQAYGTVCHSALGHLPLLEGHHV

[6] = molecular target: T1, Nuclear receptor subfamily 1 group I member 3; assay: Inhibition of GST-tagged human CAR LBD incubated for 90 mins in presence of Cy5-PGC1-alpha by HTRF co-activator assay
[7] = molecular target: T3, Calcium/calmodulin-dependent protein kinase kinase 2 (Homo sapiens, UniProt Q96RR4); assay: Inhibition of GST-tagged human CAMKK2 incubated for 90 mins by TR-FRET assay
Target sequence in this assay (Q96RR4 whole entry): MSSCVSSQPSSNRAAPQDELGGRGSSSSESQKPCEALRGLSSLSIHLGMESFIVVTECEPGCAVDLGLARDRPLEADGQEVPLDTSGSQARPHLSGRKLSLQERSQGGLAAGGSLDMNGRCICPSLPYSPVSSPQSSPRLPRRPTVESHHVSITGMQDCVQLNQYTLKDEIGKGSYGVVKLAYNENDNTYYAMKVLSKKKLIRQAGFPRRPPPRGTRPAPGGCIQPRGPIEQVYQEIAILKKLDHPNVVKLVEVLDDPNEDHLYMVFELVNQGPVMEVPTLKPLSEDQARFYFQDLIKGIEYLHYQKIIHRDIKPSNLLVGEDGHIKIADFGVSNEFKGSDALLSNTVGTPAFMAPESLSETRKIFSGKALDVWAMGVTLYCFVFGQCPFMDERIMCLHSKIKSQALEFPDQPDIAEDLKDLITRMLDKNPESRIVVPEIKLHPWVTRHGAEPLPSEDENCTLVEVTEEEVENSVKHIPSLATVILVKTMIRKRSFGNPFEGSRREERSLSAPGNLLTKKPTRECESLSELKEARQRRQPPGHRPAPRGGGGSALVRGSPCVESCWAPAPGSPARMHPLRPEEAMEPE

[8] = molecular target: T3, Calcium/calmodulin-dependent protein kinase kinase 2; assay: Binding affinity to GST-tagged human CAMKK2 assessed as fold change in FRET signal at 30 uM incubated for 90 mins by TR-FRET assay relative to control
Target sequence in this assay (Q96RR4 2-588 limits assumed): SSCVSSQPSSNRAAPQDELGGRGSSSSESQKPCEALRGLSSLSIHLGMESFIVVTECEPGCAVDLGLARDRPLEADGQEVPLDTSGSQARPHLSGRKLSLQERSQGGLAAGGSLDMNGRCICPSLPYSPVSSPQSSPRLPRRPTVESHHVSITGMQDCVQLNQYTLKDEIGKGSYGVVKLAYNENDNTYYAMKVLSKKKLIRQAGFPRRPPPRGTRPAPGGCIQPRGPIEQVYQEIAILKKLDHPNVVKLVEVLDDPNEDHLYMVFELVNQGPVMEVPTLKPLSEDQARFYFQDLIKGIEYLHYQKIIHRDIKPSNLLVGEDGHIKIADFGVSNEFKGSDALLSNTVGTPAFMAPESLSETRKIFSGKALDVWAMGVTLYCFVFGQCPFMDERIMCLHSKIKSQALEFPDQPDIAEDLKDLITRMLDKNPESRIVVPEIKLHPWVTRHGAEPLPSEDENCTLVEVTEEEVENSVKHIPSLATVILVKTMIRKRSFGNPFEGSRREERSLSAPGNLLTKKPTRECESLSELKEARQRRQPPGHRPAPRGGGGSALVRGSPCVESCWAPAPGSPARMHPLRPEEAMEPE

[9] = molecular target: CDK9/cyclin T1 (Homo sapiens) (UniProt O60563+P50750); assay: Inhibition of His-tagged human CDK9/CycT1 incubated for 90 mins by TR-FRET assay relative to control; type: protein-complex assay
[10] = molecular target: T4, Peripheral plasma membrane protein CASK (Homo sapiens) (UniProt O14936); assay: Inhibition of GST-tagged human CASK at 30 uM incubated for 90 mins by TR-FRET assay relative to control
T4 sequence (whole entry): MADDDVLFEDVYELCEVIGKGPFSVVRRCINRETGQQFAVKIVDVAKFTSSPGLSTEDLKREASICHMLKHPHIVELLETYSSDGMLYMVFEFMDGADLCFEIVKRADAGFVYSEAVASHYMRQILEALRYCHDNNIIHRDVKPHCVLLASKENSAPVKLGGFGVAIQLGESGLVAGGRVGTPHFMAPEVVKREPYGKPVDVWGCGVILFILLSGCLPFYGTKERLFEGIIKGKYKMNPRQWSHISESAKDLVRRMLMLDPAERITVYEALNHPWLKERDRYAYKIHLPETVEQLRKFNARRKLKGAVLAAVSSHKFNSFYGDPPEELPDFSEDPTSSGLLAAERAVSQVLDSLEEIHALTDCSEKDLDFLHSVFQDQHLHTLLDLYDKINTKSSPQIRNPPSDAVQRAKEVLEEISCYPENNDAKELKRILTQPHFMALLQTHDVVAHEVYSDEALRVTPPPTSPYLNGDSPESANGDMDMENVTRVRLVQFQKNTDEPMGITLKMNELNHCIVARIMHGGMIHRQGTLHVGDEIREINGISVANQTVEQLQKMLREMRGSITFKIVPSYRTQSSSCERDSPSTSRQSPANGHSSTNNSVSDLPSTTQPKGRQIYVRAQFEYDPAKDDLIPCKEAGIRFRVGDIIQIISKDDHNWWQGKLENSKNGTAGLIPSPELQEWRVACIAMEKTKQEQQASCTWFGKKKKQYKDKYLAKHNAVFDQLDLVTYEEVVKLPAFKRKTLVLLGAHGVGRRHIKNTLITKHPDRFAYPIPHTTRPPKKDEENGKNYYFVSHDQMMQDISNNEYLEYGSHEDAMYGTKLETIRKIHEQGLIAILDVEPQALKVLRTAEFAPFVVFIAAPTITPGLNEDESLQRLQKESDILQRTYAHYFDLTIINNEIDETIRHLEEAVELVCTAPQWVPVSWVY

[11] = molecular target: T1, Nuclear receptor subfamily 1 group I member 3; assay: Inhibition of GST-tagged human CAR LBD at 3 uM incubated for 90 mins in presence of Cy5-PGC1-alpha by HTRF co-activator assay relative to control; settings: 1.5 h, read-out: Imax
[12] = molecular target: T1, Nuclear receptor subfamily 1 group I member 3; assay: Inhibition of GST-tagged human CAR LBD assessed as FRET signal stability measured for 90 to 180 mins incubated for 90 mins by TR-FRET assay; settings: time 90-180 min

Glycogen synthase kinase-3 alpha, sequence (P49840 whole entry): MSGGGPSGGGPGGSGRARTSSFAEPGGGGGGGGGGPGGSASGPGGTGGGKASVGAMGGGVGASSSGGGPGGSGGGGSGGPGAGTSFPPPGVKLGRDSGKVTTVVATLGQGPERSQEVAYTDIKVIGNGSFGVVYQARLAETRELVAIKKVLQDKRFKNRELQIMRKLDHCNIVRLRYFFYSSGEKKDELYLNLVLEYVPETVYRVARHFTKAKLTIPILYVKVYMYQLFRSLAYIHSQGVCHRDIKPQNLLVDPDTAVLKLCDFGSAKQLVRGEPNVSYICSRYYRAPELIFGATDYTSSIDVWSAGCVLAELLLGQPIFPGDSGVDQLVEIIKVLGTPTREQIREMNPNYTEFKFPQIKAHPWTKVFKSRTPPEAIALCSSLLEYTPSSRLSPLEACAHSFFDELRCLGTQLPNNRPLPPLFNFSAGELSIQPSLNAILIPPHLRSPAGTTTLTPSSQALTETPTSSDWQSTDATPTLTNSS
CDK9/cyclin T1, sequence (O60563 whole entry, the tested form may be a part): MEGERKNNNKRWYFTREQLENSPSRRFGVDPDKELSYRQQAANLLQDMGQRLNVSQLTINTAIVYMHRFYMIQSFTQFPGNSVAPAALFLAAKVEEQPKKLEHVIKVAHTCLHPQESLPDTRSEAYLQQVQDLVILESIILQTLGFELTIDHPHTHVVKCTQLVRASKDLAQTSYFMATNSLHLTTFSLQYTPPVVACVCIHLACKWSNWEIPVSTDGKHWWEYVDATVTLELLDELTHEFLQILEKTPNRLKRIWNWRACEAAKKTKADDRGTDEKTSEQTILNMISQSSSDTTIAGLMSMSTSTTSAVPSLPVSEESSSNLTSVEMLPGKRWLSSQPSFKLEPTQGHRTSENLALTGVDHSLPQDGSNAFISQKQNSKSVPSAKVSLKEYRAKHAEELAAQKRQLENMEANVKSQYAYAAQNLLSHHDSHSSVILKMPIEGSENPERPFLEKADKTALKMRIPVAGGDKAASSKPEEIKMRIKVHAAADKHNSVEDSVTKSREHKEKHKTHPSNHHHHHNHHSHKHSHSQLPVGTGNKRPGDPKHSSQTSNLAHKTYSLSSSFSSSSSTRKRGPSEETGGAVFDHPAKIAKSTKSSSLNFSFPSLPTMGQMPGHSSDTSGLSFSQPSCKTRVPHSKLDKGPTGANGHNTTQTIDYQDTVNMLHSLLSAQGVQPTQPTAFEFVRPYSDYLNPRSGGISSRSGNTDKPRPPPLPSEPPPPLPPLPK
CDK9/cyclin T1, sequence (P50750 whole entry, the tested form may be a part): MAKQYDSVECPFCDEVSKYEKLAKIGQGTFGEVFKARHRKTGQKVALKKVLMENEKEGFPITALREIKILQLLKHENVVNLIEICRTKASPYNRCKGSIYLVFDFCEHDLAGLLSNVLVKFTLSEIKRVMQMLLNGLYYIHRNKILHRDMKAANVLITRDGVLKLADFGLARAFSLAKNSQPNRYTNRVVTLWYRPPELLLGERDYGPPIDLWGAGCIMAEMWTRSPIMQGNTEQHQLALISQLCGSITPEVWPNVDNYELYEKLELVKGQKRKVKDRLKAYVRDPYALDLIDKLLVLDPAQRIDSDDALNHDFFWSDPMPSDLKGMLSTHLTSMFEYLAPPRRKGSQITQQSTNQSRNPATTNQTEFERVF

- EC50 [1]: 3100 nM
- inhibition at 90 µM [2]: 75.4%
- IC50 (CDK9/cyclin T1): 5.6 nM
- inhibition at 100 µM [3]: 43.4%
- IC50 [4]: 8.2 nM
- IC50 [6]: 6600 nM
- IC50 [7]: 2700 nM
Compound: CC(C)(C)c1cnc(CSc2cnc(NC(=O)C3CCN(CC(=O)NCCOCCOCCOCCNc4cccc5c4C(=O)N(C4CCC(=O)NC4=O)C5=O)CC3)s2)o1 (stereo not drawn)
- IC50 [5]: 79.1 nM

- IC50 [1]: 260 nM
Compound: Cc1oc2ccccc2c1CNC(=O)NCc1cccs1

- fold change (FC) [8]: 2.6
- inhibition [9]: < 20%
- IC50 [4]: 20200 nM
- inhibition [10]: 40.7%
- IC50 [7]: 51.6 nM
Compound: COc1cc(N2CCOCC2)ccc1Nc1ncc(F)c(Nc2ccccc2NS(C)(=O)=O)n1
- IC50 [5]: 2800 nM

- IC50 [4]: 0.7 nM
- IC50 [7]: 161 nM
Compound: Cn1cc(C2=C(c3cn(CCCSC(=N)N)c4ccccc34)C(=O)NC2=O)c2ccccc21 [BISINDOLYLMALEIMIDE IX]
- IC50 [5]: 0.9 nM

- inhibition at 3 µM [11]: 100%
- inhibition (INH) [12]: Active
Compound: Clc1ccc(-c2nc3sccn3c2/C=N/OCc2ccc(Cl)c(Cl)c2)cc1

- IC50 [1]: 651 nM
Compound: O=S(=O)(c1ccccc1)N(CC(F)(F)F)c1ccc(C(O)(C(F)(F)F)C(F)(F)F)cc1 [T091317]

- EC50 [1]: 51100 nM
- inhibition at 90 µM [2]: 26.4%
- inhibition at 100 µM [3]: 50.8%
Compound: CC(C)(C)c1cnc(CSc2cnc(NC(=O)C3CCNCC3)s2)o1 [BMS-387032]

- IC50 [7]: 296 nM
- Ki [7]: 239 nM
Compound: CN1CC[C@H](c2c(O)cc(O)c3c(=O)cc(-c4ccccc4Cl)oc23)[C@H](O)C1 [ALVOCIDIB]
- IC50 [5]: 164 nM
- Ki [5]: 120 nM
